# Target: Human LDHA (Homo sapiens (Human), UniProt P00338)
# Assay: human LDHA primary biochemical assay (Example 1)
# Conditions: biochemical LDHA inhibitory activity, assay of Example 1
# Excerpt: This example describes a human LDHA primary biochemical assay employed in the characterization of a compound of Formula I in an embodiment of the dislcosure.
# Test compounds were placed in a Greiner Bio-One (Monroe, N.C.) 1536-well black solid bottom assay plate. 200 millimolar (mM) Tris HCl, pH 7.4, 100 micromolar (μM) EDTA and 0.01% TWEEN-20™, final concentration, was used as the assay buffer. The LDHA reagent was 2 nanomolar (nM) Human LDHA (Meridian Life Science, Inc., Memphis, Tenn.), final concentration, in assay buffer. The substrate reagent was 0.06 mM NADH and 0.2 mM sodium pyruvate, final concentration, in assay buffer. The resazurin/diaphorase coupling reagent was 0.037 mM resazurin and 0.133 milligrams per milliliter (mg/mL) diaphorase, final concentration, in assay buffer. The inhibition of LDHA activity was measured by fluorescence emission. […]
row,Structure (SMILES),IC50
1,"CCC#Cc1cc(-c2nn(-c3nc(C(=O)O)cs3)c(CC3CC3)c2Cc2ccc([S+](N)(=O)[O-])c(F)c2)ccc1F [Compound 109, 2-(3-(3-(but-1-yn-1-yl)-4-fluorophenyl)-5-(cyclopropylmethyl)-4-(3-fluoro-4-sulfamoylbenzyl)-1H-pyrazol-1-yl)thiazole-4-carboxylic acid]",< 100 nM
2,"Cc1ccc(C2CC(c3cccc(-c4nn(-c5nc(C(=O)O)cs5)c(CC5CC5)c4Cc4ccc(S(N)(=O)=O)c(F)c4)c3)C2)s1 (stereo not shown) [Compound 133, 2-(5-(cyclopropylmethyl)-4-(3-fluoro-4-sulfamoylbenzyl)-3-(3-(3-(5-methylthiophen-2-yl)cyclobutyl)phenyl)-1H-pyrazol-1-yl)thiazole-4-carboxylic acid]",< 100 nM
3,"Cc1ccc(C#Cc2cccc(-c3nn(-c4nc(C(=O)O)cs4)c(C4CC4C4CC4)c3Cc3ccc(S(N)(=O)=O)c(F)c3)c2)s1 (stereo not shown) [Compound 134, 2-(5-([1,1′-bi(cyclopropan)]-2-yl)-4-(3-fluoro-4-sulfamoylbenzyl)-3-(3-((5-methylthiophen-2-yl)ethynyl)phenyl)-1H-pyrazol-1-yl)thiazole-4-carboxylic acid]",100 to 1000 nM
4,"NS(=O)(=O)c1ccc(Cc2c(-c3ccc(F)c(-c4ccc(F)c(F)c4)c3)nn(-c3nc(C(=O)O)cs3)c2CC2CC2)cc1F [Compound 136, 2-(5-(cyclopropylmethyl)-4-(3-fluoro-4-sulfamoylbenzyl)-3-(3′,4′,6-trifluoro-[1,1′-biphenyl]-3-yl)-1H-pyrazol-1-yl)thiazole-4-carboxylic acid]",< 100 nM
5,"NS(=O)(=O)c1ccc(Cc2c(-c3ccc(F)c(-c4ccc(Cl)cc4)c3)nn(-c3nc(C(=O)O)cs3)c2CC2CC2)cc1F [Compound 139, 2-(3-(4′-chloro-6-fluoro-[1,1′-biphenyl]-3-yl)-5-(cyclopropylmethyl)-4-(3-fluoro-4-sulfamoylbenzyl)-1H-pyrazol-1-yl)thiazole-4-carboxylic acid]",< 100 nM

# Continued, values first:
row,IC50,Structure (SMILES)
1,< 100 nM,"NS(=O)(=O)c1ccc(Cc2c(-c3ccc(F)c(C4=CCC(C(F)(F)F)CC4)c3)nn(-c3nc(C(=O)O)cs3)c2CC2CC2)cc1F (stereo not shown) [Compound 102, 2-(5-(cyclopropylmethyl)-3-(6-fluoro-4′-(trifluoromethyl)-2′,3′,4′,5′-tetrahydro-[1,1′-biphenyl]-3-yl)-4-(3-fluoro-4-sulfamoylbenzyl)-1H-pyrazol-1-yl)thiazole-4-carboxylic acid]"
2,< 100 nM,"NS(=O)(=O)c1ccc(Cc2c(-c3ccc(F)c(C4=Cc5ccccc5C4)c3)nn(-c3nc(C(=O)O)cs3)c2CC2CC2)cc1F [Compound 105, 2-(5-(cyclopropylmethyl)-3-(4-fluoro-3-(1H-inden-2-yl)phenyl)-4-(3-fluoro-4-sulfamoylbenzyl)-1H-pyrazol-1-yl)thiazole-4-carboxylic acid]"
3,< 100 nM,"NS(=O)(=O)c1ccc(Cc2c(-c3ccc(F)c(C4=CCC(F)(F)CC4)c3)nn(-c3nc(C(=O)O)cs3)c2CC2CC2)cc1F [Compound 107, 2-(5-(cyclopropylmethyl)-4-(3-fluoro-4-sulfamoylbenzyl)-3-(4′,4′,6-trifluoro-2′,3′,4′,5′-tetrahydro-[1,1′-biphenyl]-3-yl)-1H-pyrazol-1-yl)thiazole-4-carboxylic acid]"
4,< 100 nM,"NS(=O)(=O)c1ccc(Cc2c(-c3ccc(F)c(C4=CCC5(CC4)CC5)c3)nn(-c3nc(C(=O)O)cs3)c2CC2CC2)cc1F [Compound 108, 2-(5-(cyclopropylmethyl)-3-(4-fluoro-3-(spiro[2.5]oct-5-en-6-yl)phenyl)-4-(3-fluoro-4-sulfamoylbenzyl)-1H-pyrazol-1-yl)thiazole-4-carboxylic acid]"
5,< 100 nM,"NS(=O)(=O)c1ccc(Cc2c(-c3ccc(F)c(-c4ccc(C(F)(F)F)cc4)c3)nn(-c3nc(C(=O)O)cs3)c2CC2CC2)cc1F [Compound 138, 2-(5-(cyclopropylmethyl)-3-(6-fluoro-4′-(trifluoromethyl)-[1,1′-biphenyl]-3-yl)-4-(3-fluoro-4-sulfamoylbenzyl)-1H-pyrazol-1-yl)thiazole-4-carboxylic acid]"

# Reference: US11752138B2 (VANDERBILT UNIVERSITY, priority 2020, dated 2023)
